Measured values from patent EP0731697B1, “SSI TYRPHOSTINS AND PHARMACEUTICAL COMPOSITIONS” (priority 1993, dated 1995).
Where two headings read alike, the source gives them in different places.

Tests used:
[1] = test system: murine peritoneal macrophages; assay: NO2- production by periodate-activated murine peritoneal macrophages; assay type: cell-based
Description: Nitrite (NO2-) levels were determined in supernatants at the time indicated, as described herein. (Table 5) Values are expressed as means of triplicate cultures. […] Two additional experiments yielded similar results.
NO2- the product of NO oxidation is used to determine NO produced. Nitrite concentration in supernatants of macrophages was measured by a microplate assay method. 100 ul aliquots of supernatants were incubated with an equal volume of Griess reagent (1% sulfanilamide/O.1% naphthylethylene diamine dihydrochloride/2.5% H3PO4) at room temperature for 10 min. The absorbance at 550nm was determined in a microplate reader. Sodium nitrite was used as a standard.
Mice were injected i.p. with 1 ml sodium periodate (5mM). Three to 4 days later, macrophages were washed from the peritoneal cavity with PBS. After centrifugation at 170g for 10 min at […], the cell pellet was resuspended in RPMI 1640 containing 10% heat-inactivated new born calf serum. Adherent macrophage monolayers were obtained by plating the cells in 96-well plastic trays at 4x10^5 cells/well for 2 hr at 37°C in 5% CO2/air. Nonadherent cells were removed by suction and complete medium was added. […]

[2] = test system: Murine fibroblastic cells (A9); conditions: for Protection Against TNF-α-Induced Cytotoxicity (cell viability): 1440 min
Description: Tyrphostins at different concentration were added 2 hr prior to TNF. After 24 hrs cells viability was determined by vital staining using neutral red.
Recombinant human TNFα is added to a mouse fibroblastic cell line (A9), cultured in the presence of cyclohexamine and cell viability is monitored after 20 hours. […] The percentage of live cells was measured from 2 hours prior to administration until 4 hours after administration for a control and for TNF at concentrations of 0.2 ng/ml, 0.05 ng/ml, and 1.0 ng/ml.

EGF receptor = EGF receptor (Homo sapiens, UniProt P00533); conditions: even at concentrations above 100 uM; cited from earlier work
Her-2/neu receptor = Her-2/neu receptor (Homo sapiens, UniProt P04626); conditions: even at concentrations above 100 uM; cited from earlier work
PDGFR = conditions: even at concentrations above 100 uM; cited from earlier work
TNF-α [3] = assay: LPS-induced production of TNF-α by activated murine peritoneal macrophages in vitro
Description: The amount of TNF-α was quantitated by assessing the extent of killing of the TNF-α sensitive cell line (A9) essentially as described by Ruff and Gilford, G. E. J. Immunol. […] Briefly, mouse A9 fibroblasts were plated in 96-well flat-bottom micro-titer plates at 30,000 cells /0.1 ml to establish a dense monolayer. After incubation for 24 hr at 37 C in a humidified 5% CO2 atmosphere, cycloheximide was added to a final concentration of 50 ug/ml and 100 ul of serially diluted test samples were added to the wells. After incubation for additional 18 hr the supernatants were carefully aspirated, the monolayer were washed twice with PBS and 200 ul of neutral red solution (0.02%) was added. After incubation for 2 hr, cells were washed and the dye that had been absorbed by the live cells was extracted using 200 ul of 50% ethanol. The concentration of the dye was determined by an ELISA autoreader using a 550 nm filter. Murine TNF-α ELISA kit from ENDOGEN Inc., was used for quancitation of murine TNF-α.
Mice were injected i.p. with 1 ml sodium periodate (5mM). Three to 4 days later, macrophages were washed from the peritoneal cavity with PBS. After centrifugation at 170g for 10 min at 40° C, the cell pellet was resuspended in RPMI 1640 containing 10% heat-inactivated new born calf serum. Adherent macrophage monolayers were obtained by plating the cells in 96-well plastic trays at 4x10^5 cells/well for 2 hr at 37°C in 5% CO2/air. Nonadherent cells were removed by suction and complete medium was added.

TNF-α [4] = assay: LPS induced increase in serum TNF-α levels in mice; assay type: in vivo
Excerpt: TNF-α was implicated to mediate many of the toxic effect of LPS. For example, the effect of SSI 3 on serum TNF-α levels in mice which had been treated with LPS was investigated. LPS induced a rapid increase in serum TNF-α levels. […] […] The bioassay gave somewhat higher levels compared to the ELISA. This finding may indicate that the serum from LPS-treated mice contained in addition to TNF-α, other cytotoxic factors.
The amount of TNF-α was quantitated by assessing the extent of killing of the TNF-α sensitive cell line (A9) essentially as described by Ruff and Gilford, G. E. J. Immunol. 125, 1671-1677, (1980). Briefly, mouse A9 fibroblasts were plated in 96-well flat-bottom micro-titer plates at 30,000 cells /0.1 ml to establish a dense monolayer. After incubation for 24 hr at 37 C in a humidified 5% CO2 atmosphere, cycloheximide was added to a final concentration of 50 ug/ml and 100 ul of serially diluted test samples were added to the wells. After incubation for additional 18 hr the supernatants were carefully aspirated, the monolayer were washed twice with PBS and 200 ul of neutral red solution (0.02%) was added. After incubation for 2 hr, cells were washed and the dye that had been absorbed by the live cells was extracted using 200 ul of 50% ethanol. The concentration of the dye was determined by an ELISA autoreader using a 550 nm filter. Murine TNF-α ELISA kit from ENDOGEN Inc., was used for quancitation of murine TNF-α.

mice = assay: LPS-induced lethal toxicity in mice; conditions: for mice alive after 7 days: 100 ug/mouse 2 hours before or after LPS
[5] = Solubility in aqueous solution; assay type: physicochemical
[6] = LPS 200 µg/mouse, AG 300 µg/mouse 2 hrs prior to LPS, 1hr, mean (two single values)
[7] = LPS 200 µg/mouse, AG 300 µg/mouse 2 hrs prior to LPS, 2hr, mean (two single values)
[8] = no LPS (-), AG 300 µg/mouse, 1hr

Sequence of EGF receptor (P00533 25-1210): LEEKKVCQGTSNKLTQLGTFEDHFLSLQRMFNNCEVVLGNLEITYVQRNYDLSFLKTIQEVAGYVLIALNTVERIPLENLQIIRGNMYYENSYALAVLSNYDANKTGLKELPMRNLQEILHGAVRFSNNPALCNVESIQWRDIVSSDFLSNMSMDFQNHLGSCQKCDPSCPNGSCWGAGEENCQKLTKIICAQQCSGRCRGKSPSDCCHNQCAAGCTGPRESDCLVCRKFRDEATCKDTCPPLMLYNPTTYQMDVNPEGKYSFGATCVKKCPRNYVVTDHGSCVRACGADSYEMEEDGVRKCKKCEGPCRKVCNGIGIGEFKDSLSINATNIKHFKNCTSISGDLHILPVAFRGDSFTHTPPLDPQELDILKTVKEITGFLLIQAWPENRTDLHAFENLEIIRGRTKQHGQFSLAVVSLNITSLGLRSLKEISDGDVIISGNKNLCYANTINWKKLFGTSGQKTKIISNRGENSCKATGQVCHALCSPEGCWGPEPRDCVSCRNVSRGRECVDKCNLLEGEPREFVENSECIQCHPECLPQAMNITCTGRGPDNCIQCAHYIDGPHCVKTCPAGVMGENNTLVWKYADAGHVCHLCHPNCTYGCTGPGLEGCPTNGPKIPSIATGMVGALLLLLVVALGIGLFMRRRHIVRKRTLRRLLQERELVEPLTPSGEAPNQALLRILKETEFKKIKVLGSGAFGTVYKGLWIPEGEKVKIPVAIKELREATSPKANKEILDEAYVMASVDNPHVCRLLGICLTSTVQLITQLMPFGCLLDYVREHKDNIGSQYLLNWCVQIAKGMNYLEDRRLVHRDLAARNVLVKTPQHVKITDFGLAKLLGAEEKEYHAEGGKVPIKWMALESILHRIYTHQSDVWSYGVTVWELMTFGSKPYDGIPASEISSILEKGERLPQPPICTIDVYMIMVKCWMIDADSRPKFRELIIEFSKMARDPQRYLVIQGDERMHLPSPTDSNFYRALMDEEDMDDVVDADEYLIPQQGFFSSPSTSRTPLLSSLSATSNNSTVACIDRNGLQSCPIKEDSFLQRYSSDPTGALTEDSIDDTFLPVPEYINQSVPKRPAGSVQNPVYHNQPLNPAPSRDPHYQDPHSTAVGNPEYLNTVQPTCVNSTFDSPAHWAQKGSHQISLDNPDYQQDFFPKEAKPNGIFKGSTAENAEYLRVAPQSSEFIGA
Sequence of Her-2/neu receptor (P04626 23-1255): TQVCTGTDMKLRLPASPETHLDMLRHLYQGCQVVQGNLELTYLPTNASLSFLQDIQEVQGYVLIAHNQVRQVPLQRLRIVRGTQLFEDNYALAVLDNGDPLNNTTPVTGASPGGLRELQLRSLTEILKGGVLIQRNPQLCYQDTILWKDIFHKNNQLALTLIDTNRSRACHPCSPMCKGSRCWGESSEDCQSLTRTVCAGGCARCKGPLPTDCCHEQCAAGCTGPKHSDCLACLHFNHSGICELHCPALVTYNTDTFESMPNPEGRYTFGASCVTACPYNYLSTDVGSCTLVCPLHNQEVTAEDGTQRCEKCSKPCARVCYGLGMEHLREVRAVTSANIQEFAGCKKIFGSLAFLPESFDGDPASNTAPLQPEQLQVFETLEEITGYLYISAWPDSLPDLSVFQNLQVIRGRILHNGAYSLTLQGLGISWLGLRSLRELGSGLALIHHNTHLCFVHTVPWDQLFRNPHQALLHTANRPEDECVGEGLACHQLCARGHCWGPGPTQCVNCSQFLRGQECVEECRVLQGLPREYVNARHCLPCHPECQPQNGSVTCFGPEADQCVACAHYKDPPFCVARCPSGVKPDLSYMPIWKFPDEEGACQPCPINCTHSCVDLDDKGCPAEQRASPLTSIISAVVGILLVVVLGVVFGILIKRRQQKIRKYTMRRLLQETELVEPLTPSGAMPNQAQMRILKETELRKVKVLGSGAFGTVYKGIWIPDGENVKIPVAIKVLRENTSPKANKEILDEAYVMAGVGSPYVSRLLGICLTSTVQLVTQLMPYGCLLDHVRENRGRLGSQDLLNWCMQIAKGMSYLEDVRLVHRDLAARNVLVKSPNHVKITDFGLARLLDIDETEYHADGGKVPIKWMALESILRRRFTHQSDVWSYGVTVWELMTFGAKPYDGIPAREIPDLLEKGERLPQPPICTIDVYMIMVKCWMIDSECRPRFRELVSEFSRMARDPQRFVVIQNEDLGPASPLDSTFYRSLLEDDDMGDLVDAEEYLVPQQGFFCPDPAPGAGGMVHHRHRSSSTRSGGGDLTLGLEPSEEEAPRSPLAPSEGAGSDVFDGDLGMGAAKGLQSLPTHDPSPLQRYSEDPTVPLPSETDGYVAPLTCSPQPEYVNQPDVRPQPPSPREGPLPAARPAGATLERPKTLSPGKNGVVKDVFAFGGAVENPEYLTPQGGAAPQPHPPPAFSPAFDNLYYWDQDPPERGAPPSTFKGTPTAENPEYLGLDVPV

| SMILES | NO2- Production by Macrophages ([1]; SSI 20 uM, LPS 10 ug, 1 DAY) | NO2- Production by Macrophages ([1]; SSI 20 uM, LPS 10 ug, 2 DAY) | NO2- Production by Macrophages ([1]; SSI 20 uM, LPS 10 ug, 3 DAY) | NO2- Production by Macrophages ([1]; SSI 20 uM, no LPS, 1 DAY) | NO2- Production by Macrophages ([1]; SSI 20 uM, no LPS, 2 DAY) | NO2- Production by Macrophages ([1]; SSI 20 uM, no LPS, 3 DAY) | NO2- Production by Macrophages ([1]; SSI 50 uM, no LPS, 1 DAY) | NO2- Production by Macrophages ([1]; SSI 50 uM, no LPS, 2 DAY) | NO2- Production by Macrophages ([1]; SSI 50 uM, no LPS, 3 DAY) | blocking TNF-α induced cytotoxicity in vitro [2] | Protection Against TNF-α-Induced Cytotoxicity (cell viability) ([2]; TNF-α 0 ng/ml) | Protection Against TNF-α-Induced Cytotoxicity (cell viability) ([2]; TNF-α 0.2 ng/ml, none 41±2.3) | Protection Against TNF-α-Induced Cytotoxicity (cell viability) ([2]; TNF-α 0.5 ng/ml, none 20±1.7) | TNF-α (TNF-α [3]; LPS +) [pg/mL] | TNF-α (TNF-α [3]; LPS -) [pg/mL] | Serum TNF-α (TNF-α [4]; [6]) | Serum TNF-α (TNF-α [4]; [7]) | Serum TNF-α (TNF-α [4]; [8]) [ng/mL] | also measured |
| --- | --- | --- | --- | --- | --- | --- | --- | --- | --- | --- | --- | --- | --- | --- | --- | --- | --- | --- | --- |
| N#CC(C#N)=Cc1cc(O)c(O)c([N+](=O)[O-])c1 [SSI 8] | 42,7 µg | 80,6 µg | 83,4 µg | 10,4 µg | 13,5 µg | 11,8 µg | 5,8 µg | 8,1 µg | 5,9 µg | active | 100 | 67±4.1 | 46+2.8 | <5 | <5 |  |  |  | NO2- production in unstimulated and LPS-stimulated periodate-activated murine macrophages ([1]; LPS (10 mg/ml)): effectively inhibited; NO2- Production by Macrophages ([1]; SSI 50uM, LPS 10 ug, 1 DAY): 6,4 µg; NO2- Production by Macrophages ([1]; SSI 50uM, LPS 10 ug, 2 DAY): 11,5 µg; NO2- Production by Macrophages ([1]; SSI 50uM, LPS 10 ug, 3 DAY): 22,4 µg; effect on EGF receptor (EGF receptor): no effect; effect on Her-2/neu receptor (Her-2/neu receptor): no effect; effect on PDGFR (PDGFR): no effect; ability to inhibit LPS-induced production of TNF-α by activated murine peritoneal macrophages in vitro (TNF-α [3]; among the tyrphostins tested): most potent |
| N#CC(=Cc1cc(O)c(O)c([N+](=O)[O-])c1)C(=O)O [SSI 9] | 71,3 µg | 112,9 µg | 136 µg | 41,8 µg | 57,2 µg | 45,1 µg | 36 µg | 51 µg | 33 µg | not |  |  |  | 17 | <5 | 17.7 (17.3, 18.2) ng/ml | 11.1 (10.5, 11.7) ng/ml | 16.0 |  |
| N#CC(=Cc1cc(O)c(O)c([N+](=O)[O-])c1)C(=O)NCCCc1ccccc1 [SSI 10] | 42,3 µg | 100,9 µg | 124,9 µg | 23,4 µg | 27,9 µg | 44,6 µg | 23,3 µg | 12,3 µg | 13,2 µg |  |  |  |  |  |  | 18.7 (23.2, 19.2) ng/ml | 12.9 (13.6, 12.2) ng/ml | 14.0 |  |
| N#CC(=Cc1ccc(O)c(O)c1)C(=O)NCc1ccccc1 [SSI 16] |  |  |  |  |  |  |  |  |  |  | 100 | 41±4.3 | 23±2.0 |  |  |  |  |  | LPS induced NO production ([1]; 50 um, added 2 hours prior to LPS, 24 hours): markedly inhibit; NO production ([1]; 50 um, from an initial level of 70 uM (no LPS), 24 hours): ~30 µM; NO production ([1]; 50 um, from an initial level of 40 (10 ug/ml of LPS), 24 hours): approximately 20 uM; more active in inhibiting TNF-α cytotoxicity in vitro [2]: two to three fold; TNF toxicity (percentage of live cells) ([2]; SSI 3 50 uM, SSI 16 2 uM, SSI 17 2 and 10 uM, A9 cells with cyclohexamine, viability after 20 hours, TNF 0.2, 0.05 and 1.0 ng/ml): prevent TNF toxicity to different degrees; LPS induced toxicity in vivo (mice; 400 ug/mouse over 7 days with 10 mice): does not prevent |
| N#CC(=Cc1ccc([N+](=O)[O-])c(O)c1)C(=O)NCCCc1ccccc1 [SSI 19] |  |  |  |  |  |  |  |  |  |  | 100 | 42±3.7 | 18±2.6 |  |  |  |  |  | preventing TNF toxicity ([2]; 2 and 10 uM): effective; toxicity to the indicator A9 cells ([2]; 50 um, by itself): toxic |
| N#CC(=Cc1ccc([N+](=O)[O-])c(O)c1)C(=O)NCCCCc1ccccc1 [SSI 23] |  |  |  |  |  |  |  |  |  |  |  |  |  |  |  |  |  |  | behaviour after dilution of the stock (made in DMSO) in PBS [5]: rapidly precipitates; solubility in aqueous solution [5]: very soluble; preventing TNF toxicity in vitro ([2]; 50um, added at the same time, 1 hour prior to, or late (2hr) after the addition of TNF): effective; mice alive after 7 days (mice; 2.2 mg LPS/mouse, LPS alone 1 alive): 4 out of 5 mice; mice alive after 7 days (mice; 2.5 mg LPS/mouse, LPS alone 0 alive after 1 day): 2 out of 5 mice; induced lethality (mice; even when administered late after LPS): prevent |
